± gives the expanded uncertainty stated by the source.
Experiment: activity coefficient (dimensionless); of the first substance listed, at infinite dilution; xn = mol fraction of the nth substance listed
Settings: Liquid, Chromatography, x1 = 0

SMILES	activity coefficient (322.85 K)	activity coefficient (332.65 K)	activity coefficient (343.15 K)
CCCCCCCCCC [decane] + CCCCCCCCCC[N+](C)(C)C.O=S(=O)([N-]S(=O)(=O)C(F)(F)F)C(F)(F)F	10.1 ± 0.46	9.82 ± 0.45	9.32 ± 0.43
c1ccccc1 [benzene] + CCCCCCCCCC[N+](C)(C)C.O=S(=O)([N-]S(=O)(=O)C(F)(F)F)C(F)(F)F	0.71 ± 0.03	0.73 ± 0.03	0.72 ± 0.03
CCCCCCCCC [nonane] + CCCCCCCC[N+](C)(C)C.O=S(=O)([N-]S(=O)(=O)C(F)(F)F)C(F)(F)F	15.9 ± 0.74	14.8 ± 0.68	13.4 ± 0.62
CC(C)CC(C)(C)C [2,2,4-trimethylpentane] + CCCCCCCC[N+](CCCCCCCC)(CCCCCCCC)CCCCCCCC.O=S(=O)([N-]S(=O)(=O)C(F)(F)F)C(F)(F)F	1.52 ± 0.06	1.51 ± 0.06	1.5 ± 0.06
C1CCCCCC1 [cycloheptane] + CCCCCCCC[N+](C)(C)C.O=S(=O)([N-]S(=O)(=O)C(F)(F)F)C(F)(F)F	10.8 ± 0.5	14.7 ± 0.68	19.4 ± 0.9
CCCCCCC [heptane] + CCCCCCCC[N+](C)(C)C.O=S(=O)([N-]S(=O)(=O)C(F)(F)F)C(F)(F)F	8.27 ± 0.38	7.81 ± 0.36	7.18 ± 0.33
CCCC=O [butanal] + CCCCCCCCCC[N+](C)(C)C.O=S(=O)([N-]S(=O)(=O)C(F)(F)F)C(F)(F)F	0.47 ± 0.03	0.53 ± 0.03	0.51 ± 0.03
CCCC(C)=O [pentan-2-one] + CCCCCCCC[N+](C)(C)C.O=S(=O)([N-]S(=O)(=O)C(F)(F)F)C(F)(F)F	0.57 ± 0.03	0.57 ± 0.03	0.57 ± 0.03
c1ccncc1 [pyridine] + CCCC[N+](C)(CCCC)CCCC.O=S(=O)([N-]S(=O)(=O)C(F)(F)F)C(F)(F)F	0.55 ± 0.03	0.56 ± 0.03	0.56 ± 0.03
CCC(C)CC [3-methylpentane] + CCCCCCCC[N+](CCCCCCCC)(CCCCCCCC)CCCCCCCC.O=S(=O)([N-]S(=O)(=O)C(F)(F)F)C(F)(F)F	1.22 ± 0.04	1.22 ± 0.04	1.21 ± 0.04
CCCCCC [hexane] + CCCC[N+](C)(CCCC)CCCC.O=S(=O)([N-]S(=O)(=O)C(F)(F)F)C(F)(F)F	6.75 ± 0.31	6.75 ± 0.31	6.44 ± 0.29
C1COCCO1 [1,4-dioxane] + CCCC[N+](C)(CCCC)CCCC.O=S(=O)([N-]S(=O)(=O)C(F)(F)F)C(F)(F)F	0.61 ± 0.03	0.67 ± 0.03	0.67 ± 0.03
CCC[N+](=O)[O-] [1-nitropropane] + CCCCCCCC[N+](C)(C)C.O=S(=O)([N-]S(=O)(=O)C(F)(F)F)C(F)(F)F	0.62 ± 0.03	0.61 ± 0.03	0.6 ± 0.03
C1COCCO1 [1,4-dioxane] + CCCCCCCC[N+](CCCCCCCC)(CCCCCCCC)CCCCCCCC.O=S(=O)([N-]S(=O)(=O)C(F)(F)F)C(F)(F)F	0.47 ± 0.03	0.47 ± 0.03	0.47 ± 0.03
CC#N [acetonitrile] + CCCCCCCCCC[N+](C)(C)C.O=S(=O)([N-]S(=O)(=O)C(F)(F)F)C(F)(F)F	0.44 ± 0.03	0.44 ± 0.03	0.42 ± 0.03
CCCCCCC [heptane] + CCCCCCCCCC[N+](C)(C)C.O=S(=O)([N-]S(=O)(=O)C(F)(F)F)C(F)(F)F	5.26 ± 0.24	5.14 ± 0.23	4.92 ± 0.22
CCCO [propan-1-ol] + CCCC[N+](C)(CCCC)CCCC.O=S(=O)([N-]S(=O)(=O)C(F)(F)F)C(F)(F)F	1.78 ± 0.08	1.64 ± 0.07	1.48 ± 0.06
C[N+](=O)[O-] [nitromethane] + CCCC[N+](C)(CCCC)CCCC.O=S(=O)([N-]S(=O)(=O)C(F)(F)F)C(F)(F)F	0.65 ± 0.03	0.65 ± 0.03	0.62 ± 0.03

— the NIST ThermoML archive (doi:10.1021/je200637v)
